Active and inactive are the calls of the source. No cut-off for these calls is given here.
Tests used:
MCF7 [1] = test: Anticancer activity against Homo sapiens (human) MCF7 cells assessed as cell growth at 100 uM after 48 hr by SRB assay; assay type: functional, cell-based; details: MCF7, 48 h; for growth at 100 µM: read-out: Activity
HepG2 [2] = test: Anticancer activity against Homo sapiens (human) HepG2 cells assessed as cell growth at 100 uM after 48 hr by SRB assay; assay type: functional, cell-based; details: HepG2, 48 h; for growth at 100 µM: read-out: Activity
HCT-116 [3] = test: Anticancer activity against Homo sapiens (human) HCT116 cells assessed as cell growth at 100 uM after 48 hr by SRB assay; assay type: functional, cell-based; details: HCT-116, 48 h; for growth at 100 µM: read-out: Activity
[4] = Cytotoxicity against lymphocytes in Homo sapiens (human) whole blood assessed as inhibition of cell viability after 24 to 96 hr by neutral red uptake assay; assay type: tissue-based; details: Lymphocyte
Blood = test: Toxicity in Homo sapiens (human) blood assessed as hemolysis
Hepatitis C virus [5] = test: Antiviral activity against Hepatitis C virus isolated from PBMC of infected patient assessed as disappearance of (+) and or (-) strands of viral RNA at 0.394 uM after 96 hr by qualitative RT-PCR analysis; assay type: functional, organism-based; details: Hepacivirus hominis
Hepatitis C virus [6] = test: Antiviral activity against Hepatitis C virus infected in HepG2 cells assessed as disappearance of (+) and or (-) strands of viral RNA at 0.394 uM after 96 hr by qualitative RT-PCR analysis; assay type: functional, organism-based; details: Hepacivirus hominis
Hepatitis C virus [7] = test: Antiviral activity against Hepatitis C virus isolated from PBMC of infected patient assessed as disappearance of (+) and or (-) strands of viral RNA at 0.647 uM after 96 hr by qualitative RT-PCR analysis; assay type: functional, organism-based; details: Hepacivirus hominis
Hepatitis C virus [8] = test: Antiviral activity against Hepatitis C virus infected HepG2 cells assessed as disappearance of (+) and or (-) strands of viral RNA at 0.647 uM after 96 hr by qualitative RT-PCR analysis; assay type: functional, organism-based; details: Hepacivirus hominis
HCT-116 [9] = test: Anticancer activity against Homo sapiens (human) HCT116 cells assessed as growth inhibition after 48 hr by SRB assay; assay type: functional, cell-based; details: HCT-116, 48 h
MCF7 [10] = test: Anticancer activity against Homo sapiens (human) MCF7 cells assessed as growth inhibition after 48 hr by SRB assay; assay type: functional, cell-based; details: MCF7, 48 h
Hepatitis C virus [11] = test: Antiviral activity against Hepatitis C virus infected HepG2 cells assessed as disappearance of (+) and or (-) strands of viral RNA at 1.116 uM after 96 hr by qualitative RT-PCR analysis; assay type: functional, organism-based; details: Hepacivirus hominis
Hepatitis C virus [12] = test: Antiviral activity against Hepatitis C virus isolated from PBMC of infected patient assessed as disappearance of (+) and or (-) strands of viral RNA at 1.116 uM after 96 hr by qualitative RT-PCR analysis; assay type: functional, organism-based; details: Hepacivirus hominis
Hepatitis C virus [13] = test: Antiviral activity against Hepatitis C virus isolated from PBMC of infected patient assessed as disappearance of (+) and or (-) strands of viral RNA at 0.078 uM after 96 hr by qualitative RT-PCR analysis; assay type: functional, organism-based; details: Hepacivirus hominis
Hepatitis C virus [14] = test: Antiviral activity against Hepatitis C virus infected HepG2 cells assessed as disappearance of (+) and or (-) strands of viral RNA at 0.078 uM after 96 hr by qualitative RT-PCR analysis; assay type: functional, organism-based; details: Hepacivirus hominis
Hepatitis C virus [15] = test: Antiviral activity against Hepatitis C virus isolated from PBMC of infected patient assessed as disappearance of (+) and or (-) strands of viral RNA at 0.108 uM after 96 hr by qualitative RT-PCR analysis; assay type: functional, organism-based; details: Hepacivirus hominis
Hepatitis C virus [16] = test: Antiviral activity against Hepatitis C virus infected HepG2 cells assessed as disappearance of (+) and or (-) strands of viral RNA at 0.108 uM after 96 hr by qualitative RT-PCR analysis; assay type: functional, organism-based; details: Hepacivirus hominis
Hepatitis C virus [17] = test: Antiviral activity against Hepatitis C virus isolated from PBMC of infected patient assessed as disappearance of (+) and or (-) strands of viral RNA at 0.30 uM after 96 hr by qualitative RT-PCR analysis; assay type: functional, organism-based; details: Hepacivirus hominis
Hepatitis C virus [18] = test: Antiviral activity against Hepatitis C virus infected HepG2 cells assessed as disappearance of (+) and or (-) strands of viral RNA at 0.30 uM after 96 hr by qualitative RT-PCR analysis; assay type: functional, organism-based; details: Hepacivirus hominis
Hepatitis C virus [19] = test: Antiviral activity against Hepatitis C virus infected HepG2 cells assessed as disappearance of (+) and or (-) strands of viral RNA at 0.295 uM after 96 hr by qualitative RT-PCR analysis; assay type: functional, organism-based; details: Hepacivirus hominis
Hepatitis C virus [20] = test: Antiviral activity against Hepatitis C virus isolated from PBMC of infected patient assessed as disappearance of (+) and or (-) strands of viral RNA at 0.295 uM after 96 hr by qualitative RT-PCR analysis; assay type: functional, organism-based; details: Hepacivirus hominis
Hepatitis C virus [21] = test: Antiviral activity against Hepatitis C virus isolated from PBMC of infected patient assessed as disappearance of (+) and or (-) strands of viral RNA at 0.611 uM after 96 hr by qualitative RT-PCR analysis; assay type: functional, organism-based; details: Hepacivirus hominis
Hepatitis C virus [22] = test: Antiviral activity against Hepatitis C virus infected HepG2 cells assessed as disappearance of (+) and or (-) strands of viral RNA at 0.611 uM after 96 hr by qualitative RT-PCR analysis; assay type: functional, organism-based; details: Hepacivirus hominis
Hepatitis C virus [23] = test: Antiviral activity against Hepatitis C virus infected HepG2 cells assessed as disappearance of (+) and or (-) strands of viral RNA at 0.077 uM after 96 hr by qualitative RT-PCR analysis; assay type: functional, organism-based; details: Hepacivirus hominis
Hepatitis C virus [24] = test: Antiviral activity against Hepatitis C virus isolated from PBMC of infected patient assessed as disappearance of (+) and or (-) strands of viral RNA at 0.077 uM after 96 hr by qualitative RT-PCR analysis; assay type: functional, organism-based; details: Hepacivirus hominis
[25] = target: T1, Arylamine N-acetyltransferase 1 (Homo sapiens, UniProt P18440); test: Inhibition of Homo sapiens (human) arylamine N-acetyltransferase 1
T1 sequence (P18440 whole entry): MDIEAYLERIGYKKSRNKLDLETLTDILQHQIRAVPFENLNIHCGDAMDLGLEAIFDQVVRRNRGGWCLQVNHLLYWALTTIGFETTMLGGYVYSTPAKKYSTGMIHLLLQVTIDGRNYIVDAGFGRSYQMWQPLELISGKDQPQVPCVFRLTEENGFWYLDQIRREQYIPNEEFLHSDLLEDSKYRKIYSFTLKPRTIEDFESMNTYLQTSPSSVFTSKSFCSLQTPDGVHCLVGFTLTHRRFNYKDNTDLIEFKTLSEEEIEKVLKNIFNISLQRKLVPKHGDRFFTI

Hepatitis C virus [26] = test: Antiviral activity against Hepatitis C virus infected in HepG2 cells assessed as disappearance of (+) and or (-) strands of viral RNA at 0.312 uM after 96 hr by qualitative RT-PCR analysis; assay type: functional, organism-based; details: Hepacivirus hominis
HepG2 [27] = test: Anticancer activity against Homo sapiens (human) HepG2 cells assessed as growth inhibition after 48 hr by SRB assay; assay type: functional, cell-based; details: HepG2, 48 h
Hepatitis C virus [28] = test: Antiviral activity against Hepatitis C virus isolated from PBMC of infected patient assessed as disappearance of (+) and or (-) strands of viral RNA at 0.312 uM after 96 hr by qualitative RT-PCR analysis; assay type: functional, organism-based; details: Hepacivirus hominis

Row | IC50 (MCF7 [10]) [µM] | Compound | growth at 100 µM (MCF7 [1]) [%] | growth at 100 µM (HepG2 [2]) [%] | growth at 100 µM (HCT-116 [3]) [%] | IC50 [4] [µM] | Activity (Blood) | further results
1 | – | COc1ccc(/C=C2\SC(=S)N(Cc3nc4ccccc4[nH]3)C2=O)c(OC)c1 | 0.34 | 17.8 | 19.2 | – | – | –
2 | – | Cc1ccc(/N=C2\S/C(=C\c3ccc(Cl)cc3)C(=O)N2Cc2nc3ccccc3[nH]2)cc1 | – | – | – | 19.7 | Non-toxic | Activity (Hepatitis C virus [5]): inactive; Activity (Hepatitis C virus [6]): inactive
3 | – | O=C1/C(=C\c2ccc(Cl)cc2)S/C(=N\c2ccccc2)N1Cc1nc2ccccc2[nH]1 | – | – | – | 32.4 | Non-toxic | Activity (Hepatitis C virus [7]): inactive; Activity (Hepatitis C virus [8]): inactive
4 | – | O=C1/C(=C\c2ccccc2)S/C(=N\c2ccccc2)N1Cc1nc2ccccc2[nH]1 | -0.69 | 24.4 | 7 | – | – | IC50 (HCT-116 [9]): 7.3 µM
5 | 35.4 | O=C1Nc2ccccc2/C1=C1/SC(=S)N(Cc2nc3ccccc3[nH]2)C1=O | – | – | – | 55.8 | Non-toxic | Activity (Hepatitis C virus [11]): inactive; Activity (Hepatitis C virus [12]): inactive
6 | 39.4 | O=C1/C(=C/c2ccc([N+](=O)[O-])cc2)SC(=S)N1Cc1nc2ccccc2[nH]1 | – | – | – | 39.5 | Non-toxic | Activity (Hepatitis C virus [13]): inactive; Activity (Hepatitis C virus [14]): inactive
7 | 46.7 | COc1ccc(/C=C2\SC(=S)N(Cc3nc4ccccc4[nH]3)C2=O)cc1 | -5.75 | 11.8 | 16.2 | 54.3 | Non-toxic | Activity (Hepatitis C virus [15]): inactive; Activity (Hepatitis C virus [16]): inactive
8 | 34.8 | O=C1/C(=C\c2ccccc2Cl)S/C(=N\c2ccccc2)N1Cc1nc2ccccc2[nH]1 | -1.74 | 18.9 | 13.8 | – | – | –
9 | – | COc1ccc(/C=C2/S/C(=N\c3ccccc3)N(Cc3nc4ccccc4[nH]3)C2=O)c(OC)c1 | -1.19 | 18.4 | 15.5 | – | – | –
10 | – | CC(=O)NS(=O)(=O)c1ccc(N/N=C2/SC(=S)N(Cc3nc4ccccc4[nH]3)C2=O)cc1 | – | – | – | 15.3 | Non-toxic | Activity (Hepatitis C virus [17]): inactive; Activity (Hepatitis C virus [18]): inactive
11 | – | CN(C)c1ccc(/C=C2\SC(=S)N(Cc3nc4ccccc4[nH]3)C2=O)cc1 | – | – | – | 14.8 | Non-toxic | Activity (Hepatitis C virus [19]): inactive; Activity (Hepatitis C virus [20]): inactive
12 | 35.1 | O=C1/C(=C/c2ccccc2)SC(=S)N1Cc1nc2ccccc2[nH]1 | – | – | – | – | – | –
13 | 39.6 | O=C1/C(=C/c2ccccc2Cl)SC(=S)N1Cc1nc2ccccc2[nH]1 | -4.32 | 9.07 | 27.6 | – | – | –
14 | – | O=C1/C(=N\Nc2ccc(S(=O)(=O)Nc3ncccn3)cc2)SC(=S)N1Cc1nc2ccccc2[nH]1 | – | – | – | 30.6 | Non-toxic | Activity (Hepatitis C virus [21]): inactive; Activity (Hepatitis C virus [22]): inactive
15 | 27.7 | COc1ccc(OC)c(/C=C2\SC(=S)N(Cc3nc4ccccc4[nH]3)C2=O)c1 | -2.27 | 18.6 | 20.8 | 39 | Non-toxic | Activity (Hepatitis C virus [23]): inactive; Activity (Hepatitis C virus [24]): inactive
16 | – | O=C1NC(=O)/C(=C/c2ccccc2O)S1 | – | – | – | – | – | IC50 [25]: 1100 nM
17 | 37.4 | O=C1/C(=C/C=C/c2ccccc2)SC(=S)N1Cc1nc2ccccc2[nH]1 | -3.93 | 14.2 | 21.2 | – | – | –
18 | – | O=C1/C(=C\c2ccc([N+](=O)[O-])cc2)S/C(=N\c2ccccc2)N1Cc1nc2ccccc2[nH]1 | -0.79 | 24 | 18 | – | – | –
19 | – | O=C1Nc2ccccc2/C1=C1/S/C(=N\c2ccccc2)N(Cc2nc3ccccc3[nH]2)C1=O | – | – | – | 15.6 | Non-toxic | Activity (Hepatitis C virus [26]): inactive; IC50 (MCF7 [1]): 7.07 µM; IC50 (HepG2 [27]): 5.91 µM; IC50 (HepG2 [2]): 6.8 µM; IC50 (HCT-116 [3]): 16.2 µM; Activity (Hepatitis C virus [28]): inactive
